Biological target: T1, yeast channel-forming VDAC isoform (YVDAC1) (Saccharomyces cerevisiae, UniProt P04840)
T1 construct: gene POR1; native protein from detergent (NP-40) extract of mitochondrial fraction; about 30 kDa; identified by LC/MS/MS against SGD ORF translations
T1 sequence (P04840 2-283): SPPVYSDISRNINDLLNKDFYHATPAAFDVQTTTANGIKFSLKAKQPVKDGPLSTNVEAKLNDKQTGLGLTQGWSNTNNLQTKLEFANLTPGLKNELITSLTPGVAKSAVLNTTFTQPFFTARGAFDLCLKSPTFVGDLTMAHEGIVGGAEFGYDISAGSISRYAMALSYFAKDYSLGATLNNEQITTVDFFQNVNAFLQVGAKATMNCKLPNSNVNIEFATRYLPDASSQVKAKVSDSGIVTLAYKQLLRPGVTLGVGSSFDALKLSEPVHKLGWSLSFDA
Assay type: biochemical

COc1cc2c(cc1OC)OC(C)(C)C=C2 [Precocene II]
affinity magnetic beads, elution and competition with free compound, SDS-PAGE, L: identification of YVDAC1 as the precocene II-binding protein in the yeast S. cerevisiae
